{"source": "patent US20220288048A1", "about": "“PIMAVANSERIN FOR TREATING SCHIZOPHRENIA OR FOR TREATING PSYCHOSIS SECONDARY TO NEURODEGENERATIVE DISORDERS OR DEPRESSIVE DISORDER” (ACADIA Pharmaceuticals Inc., priority 2019, published 2022)", "system": "adult schizophrenia patients with a persistent inadequate response to their existing antipsychotic therapy", "test": "6-week study of pimavanserin or placebo added to existing antipsychotic treatment: efficacy rating scales", "format": "in vivo, human", "parameters": "key to Marder Disorg, LSM Change from Baseline at W6 / Marder Uncntl, LSM Change from Baseline at W6 / Marder AnxDep, LSM Change from Baseline at W6: PANSS factor score points; PANSS items rated on a 7-point scale; CGI-I, LSM at W6 (column head: Change from Baseline at W6) / DAI-10, LSM Change from Baseline at W6 / KSS, LSM Change from Baseline at W6 / CDSS, LSM Change from Baseline at W6 / SF36 MH, LSM Change from Baseline at W6: scale not given here", "method": "The effect of pimavanserin as an adjunctive treatment in adult schizophrenia patients with a persistent inadequate response (i.e., partial responders) to their existing antipsychotic therapy was tested. 396 patients with moderate-to-severe psychotic symptoms were randomized to receive either pimavanserin or placebo added to existing antipsychotic treatment. […] Dosages of background oral antipsychotics could not be changed within four weeks of screening and dosages of long-acting injectables (LAI) could not be changed within 16 weeks of screening. […] Patients were administered a daily dose of pimavanserin or a placebo for six weeks. The dose started at 20 mg and could be adjusted to 34 mg or 10 mg between weeks 1 and 3. The majority of patients (56%) completed the study at the highest dose level. Patients were evaluated at baseline and on a weekly basis according to the clinical rating scale Positive and Negative Symptom Scale (PANSS). The PANSS is a 30-item, 7-point rating system that was developed to cover a range of negative symptoms not adequately measured by the Brief Psychiatric Rating Scale. It has sections that specifically measure positive symptoms, negative symptoms, and general psychopathology in schizophrenic subjects. The PANSS is widely used in trials of antipsychotic drug treatment, and has been formally validated for such use. A subset of 5 of the PANSS factors, the […] factors, were also evaluated. Other clinical rating scales that were assessed were the Clinical Global Impression Scale (CGI), Personal and Social Performance Scale (PSP), drug attitude inventory (DAI-10), Karolinska Sleepiness Scale (KSS), Calgary Depression Scale for Schizophrenia (CDSS), 36-item Short Form Physical Health evaluation ([…]) and 36-item Short Form Mental Health evaluation […].", "key": {"[1]": {"conditions": "European sites subgroup, Week 6"}, "[2]": {"conditions": "European sites subgroup, Week 6, listed as pimavanserin"}, "[3]": {"conditions": "FAS population, W6, Missing as Worsen"}}}
{"smiles": "CC(C)COc1ccc(CNC(=O)N(Cc2ccc(F)cc2)C2CCN(C)CC2)cc1", "note": "[Pimavanserin, N-(4-Fluorophenylmethyl)-N-(1-methylpiperidin-4-yl)-N′-(4-(2-methylpropyloxy)phenylmethyl)carbamide]", "values": [{"measurement": "PANSS Negative Symptoms Subscale, LS Mean Change at Week 6", "setting": "Europe subgroup", "result": "−2.9"}, {"measurement": "PANSS Positive Symptoms Subscale, LS Mean Change at Week 6", "setting": "Europe subgroup", "result": "−5.5"}, {"measurement": "PANSS Negative Symptoms Subscale, Cohen's d Effect Size", "setting": "Europe subgroup, Week 6", "result": 0.296}, {"measurement": "PANSS Negative Symptoms Subscale, LS Mean (SE) Difference", "setting": "Europe subgroup, Week 6", "result": "−1.1"}, {"measurement": "PANSS Positive Symptoms Subscale, Cohen's d Effect Size", "setting": "Europe subgroup, Week 6", "result": 0.195}, {"measurement": "PANSS Positive Symptoms Subscale, LS Mean (SE) Difference", "setting": "Europe subgroup, Week 6", "result": "−0.8 (0.49)"}, {"measurement": "CGI-S score, Change from Baseline to Week 6, Mean (SE)", "setting": "European sites subgroup", "result": "−0.8 (0.07)"}, {"measurement": "CGI-S score, Week 6, Mean (SE)", "setting": "European sites subgroup", "result": "3.8 (0.08)"}, {"measurement": "PANSS total score, Change from Baseline to Week 6, Mean (SE)", "setting": "European sites subgroup", "result": "−16.0 (1.06)"}, {"measurement": "PANSS total score, Week 6, Mean (SE)", "setting": "European sites subgroup", "result": "73.2 (1.18)"}, {"measurement": "CGI-S score, Diff in MMRM LSM (SE), pimavanserin − placebo", "setting": "[1]", "result": "−0.2 (0.09)"}, {"measurement": "CGI-S score, Effect Size (Cohen's d)", "setting": "[1]", "result": 0.266}, {"measurement": "PANSS total score, Diff in MMRM LSM (SE), pimavanserin − placebo", "setting": "[1]", "result": "−3.1 (1.37)"}, {"measurement": "PANSS total score, Effect Size (Cohen's d)", "setting": "[1]", "result": 0.261}, {"measurement": "CGI-S score, Diff in MMRM LSM (SE), pimavanserin − placebo", "setting": "[2]", "result": "−0.2"}, {"measurement": "PANSS total score, Diff in MMRM LSM (SE), pimavanserin − placebo", "setting": "[2]", "result": "−3.1"}, {"measurement": "CDSS, LSM Change from Baseline at W6", "setting": "FAS Population, OC, ANCOVA", "result": "−0.6"}, {"measurement": "DAI-10, LSM Change from Baseline at W6", "setting": "FAS Population, OC, ANCOVA", "result": 0.4}, {"measurement": "PSP, LSM Change from Baseline at W6", "setting": "FAS Population, OC, ANCOVA", "result": 6.9}, {"measurement": "SF36 MH, LSM Change from Baseline at W6", "setting": "FAS Population, OC, ANCOVA", "result": 5.6}, {"measurement": "SF36 PH, LSM Change from Baseline at W6", "setting": "FAS Population, OC, ANCOVA", "result": 0.46}, {"measurement": "CDSS, Effect Size", "setting": "FAS Population, OC, ANCOVA, W6", "result": 0.09}, {"measurement": "CDSS, Treatment group Comparison (PIM-PBO) LSM", "setting": "FAS Population, OC, ANCOVA, W6", "result": "−0.2"}, {"measurement": "DAI-10, Effect Size", "setting": "FAS Population, OC, ANCOVA, W6", "result": "Neg"}, {"measurement": "DAI-10, Treatment group Comparison (PIM-PBO) LSM", "setting": "FAS Population, OC, ANCOVA, W6", "result": "−0.0"}, {"measurement": "PSP, Effect Size", "setting": "FAS Population, OC, ANCOVA, W6", "result": 0.15}, {"measurement": "PSP, Treatment group Comparison (PIM-PBO) LSM", "setting": "FAS Population, OC, ANCOVA, W6", "result": 1.3}, {"measurement": "SF36 MH, Effect Size", "setting": "FAS Population, OC, ANCOVA, W6", "result": 0.11}, {"measurement": "SF36 MH, Treatment group Comparison (PIM-PBO) LSM", "setting": "FAS Population, OC, ANCOVA, W6", "result": 1.0}, {"measurement": "SF36 PH, Effect Size", "setting": "FAS Population, OC, ANCOVA, W6", "result": 0.00}, {"measurement": "SF36 PH, Treatment group Comparison (PIM-PBO) LSM", "setting": "FAS Population, OC, ANCOVA, W6", "result": 0.0}, {"measurement": "CGI-I, LSM at W6 (column head: Change from Baseline at W6)", "setting": "FAS Population, OC, MMRM", "result": 2.9}, {"measurement": "KSS, LSM Change from Baseline at W6", "setting": "FAS Population, OC, MMRM", "result": "−0.5"}, {"measurement": "Marder AnxDep, LSM Change from Baseline at W6", "setting": "FAS Population, OC, MMRM", "result": "−2.3"}, {"measurement": "Marder Disorg, LSM Change from Baseline at W6", "setting": "FAS Population, OC, MMRM", "result": "−2.5"}, {"measurement": "Marder Pos, LSM Change from Baseline at W6", "setting": "FAS Population, OC, MMRM", "result": "−5.5"}, {"measurement": "Marder Uncntl, LSM Change from Baseline at W6", "setting": "FAS Population, OC, MMRM", "result": "−1.7"}, {"measurement": "PANSS GenPsy, LSM Change from Baseline at W6", "setting": "FAS Population, OC, MMRM", "result": "−7.2"}, {"measurement": "PANSS Pos, LSM Change from Baseline at W6", "setting": "FAS Population, OC, MMRM", "result": "−5.4"}, {"measurement": "CGI-I, Effect Size", "setting": "FAS Population, OC, MMRM, W6", "result": 0.08}, {"measurement": "CGI-I, Treatment group Comparison (PIM-PBO) LSM", "setting": "FAS Population, OC, MMRM, W6", "result": "−0.1"}, {"measurement": "KSS, Effect Size", "setting": "FAS Population, OC, MMRM, W6", "result": 0.23}, {"measurement": "KSS, Treatment group Comparison (PIM-PBO) LSM", "setting": "FAS Population, OC, MMRM, W6", "result": "−0.3"}, {"measurement": "Marder AnxDep, Effect Size", "setting": "FAS Population, OC, MMRM, W6", "result": 0.02}, {"measurement": "Marder AnxDep, Treatment group Comparison (PIM-PBO) LSM", "setting": "FAS Population, OC, MMRM, W6", "result": "−0.0"}, {"measurement": "Marder Disorg, Effect Size", "setting": "FAS Population, OC, MMRM, W6", "result": 0.18}, {"measurement": "Marder Disorg, Treatment group Comparison (PIM-PBO) LSM", "setting": "FAS Population, OC, MMRM, W6", "result": "−0.5"}, {"measurement": "Marder Pos, Effect Size", "setting": "FAS Population, OC, MMRM, W6", "result": 0.16}, {"measurement": "Marder Pos, Treatment group Comparison (PIM-PBO) LSM", "setting": "FAS Population, OC, MMRM, W6", "result": "−0.8"}, {"measurement": "Marder Uncntl, Effect Size", "setting": "FAS Population, OC, MMRM, W6", "result": 0.01}, {"measurement": "Marder Uncntl, Treatment group Comparison (PIM-PBO) LSM", "setting": "FAS Population, OC, MMRM, W6", "result": "−0.0"}, {"measurement": "PANSS GenPsy, Effect Size", "setting": "FAS Population, OC, MMRM, W6", "result": 0.12}, {"measurement": "PANSS GenPsy, Treatment group Comparison (PIM-PBO) LSM", "setting": "FAS Population, OC, MMRM, W6", "result": "−0.8"}, {"measurement": "PANSS Pos, Effect Size", "setting": "FAS Population, OC, MMRM, W6", "result": 0.12}, {"measurement": "PANSS Pos, Treatment group Comparison (PIM-PBO) LSM", "setting": "FAS Population, OC, MMRM, W6", "result": "−0.5"}, {"measurement": "CGI-I no Chg or Worsened, (%)", "setting": "[3]", "result": "(34.7) %"}, {"measurement": "CGI-I no Chg or Worsened, Diff in % (PIM − PBO)", "setting": "[3]", "result": 4.1, "unit": "%"}]}
